The text below walks through data of patent US5880158A, “Propionamide anticonvulsants” (Research Corporation Tech., Inc., priority 1997, dated 1999).

By ED50 is commonly meant the dose at which the effect has come halfway, by size or by number of responders. Broadly, the TD50 is the 50% point of the dose-response relation for the toxic effect studied.

For data set [1], the system named is male albino Cartworth Farms No. 1 mice. Description: maximal electroshock seizure (MES) test in mice. It counts as in vivo. The following applies: intraperitoneal; for ED50: Mus musculus, ip, at time of peak effect, numbers in parentheses 95% confidence intervals.
Protocol: (§1) Activity was established using the electrical (maximal electroshock or MES) test. In the MES test, a drop of electrolyte solution with anesthetic (0.5% butacaine hemisulfate in 0.9% sodium chloride) was used in the eyes of the animals prior to positioning the corneal electrodes and delivery of current. A 60 cycle alternating current was administered for 0.2 sec. at 50 mA. Protection endpoints were defined as the abolition of the hind limb tonic extensor component of the induced seizure. In mice, the effects of compounds on forced spontaneous motor activity were determined using the rotorod test. […] Normally under these conditions, a mouse can maintain its balance almost indefinitely. In the mouse identification screening study all compounds were given at three dose levels (30, 100, 300 mg/kg) and two time periods (0.5, 4h). Typically, in the MES seizures test one animal was used at 30 mg/kg and 300 mg/kg, and three animals at 100 mg/kg. In the rotorod toxicity test four animals were used at 30 mg/kg, and 300 mg/kg, and eight animals at 100 mg/kg. If activity was found at 30 mg/kg, then lower dosages were used to find the ED50 values.
The test system is the same in data set [2]. The data set can be described thus: rotorod test, neurologic toxicity in mice. Particulars: intraperitoneal, at time of peak effect, numbers in parentheses 95% confidence intervals. In kind it is in vivo. (Falling from the rotarod earlier than controls is read as motor impairment.)
Protocol: as §1
A short description of data set [3]: rotorod test, neurologic toxicity in mice. In kind it is in vivo. The following applies: mouse, ip, intraperitoneal, at time of peak effect, numbers in parentheses 95% confidence intervals, read-out: Tox TD50.
Protocol: as §1
The test system of data set [4] is male albino Cartworth Farms No. 1 mice. The data set can be described thus: protective index (TD50/ED50), rotorod versus MES in mice. The following applies: for protective index (in words): compared with phenytoin, phenobarbital and valproate. An excerpt: Compounds were screened under the auspices of the National Institutes of Health for anticonvulsant activity in male albino Cartworth Farms No. 1 mice (ip route). Activity was established using the electrical (maximal electroshock or MES) test. In the MES test, a drop of electrolyte solution with anesthetic (0.5% butacaine hemisulfate in 0.9% sodium chloride) was used in the eyes of the animals prior to positioning the corneal electrodes and delivery of current. A 60 cycle alternating current was administered for 0.2 sec. at 50 mA. Protection endpoints were defined as the abolition of the hind limb tonic extensor component of the induced seizure. In mice, the effects of compounds on forced spontaneous motor activity were determined using the rotorod test. […] Normally under these conditions, a mouse can maintain its balance almost indefinitely. In the mouse identification screening study all compounds were given at three dose levels (30, 100, 300 mg/kg) and two time periods (0.5, 4h). Typically, in the MES seizures test one animal was used at 30 mg/kg and 300 mg/kg, and three animals at 100 mg/kg. In the rotorod toxicity test four animals were used at 30 mg/kg, and 300 mg/kg, and eight animals at 100 mg/kg.
The quantitative determination of the median effective (ED50) and toxic doses (TD50) were conducted at previously calculated times of peak effect. Groups of at least eight animals were tested using different doses of test compound until at least two points were determined between 100 and 0% protection and minimal motor impairment. The dose of candidate substance required to produce the defined endpoint in 50% of the animals in each test and the 95% confidence interval were calculated.

With `O=C1NC(=O)C(c2ccccc2)(c2ccccc2)N1` [phenytoin], the ED50 in data set [1] amounted to 6.5 mg/kg. Besides, the “Tox TD50” value in data set [2] turned out to be 43 mg/kg.
Regarding `CCCC(CCC)C(=O)O` [valproate], in data set [1], the ED50 came out at 290 mg/kg. For the same compound, in data set [2], the “Tox TD50” value is recorded as 480 mg/kg.
For `O=C(NCc1ccccc1)C(O)CO` (racemic) [R, S OH CH2 OH, N-Benzyl 2,3-Dihydroxypropionamide], in data set [1] (MES), the “anticonvulsant activity / efficacy (in words)” value was “very low anticonvulsant activity”. In addition, in data set [3], the TD50 was > 300 mg/kg.
With `COCC(OC)C(=O)NCc1ccccc1` (stereo not shown) [R, S OCH3 CH2 OCH3, N-BENZYL 2,3-DIMETHOXY PROPIONAMIDE], in data set [1], the ED50 came to 30 mg/kg. The “anticonvulsant activity / efficacy (in words)” value in data set [1] (MES) is on record as “much greater efficacy”. Besides, the “ED50, times more effective than that of the dihydroxy compound” value in data set [1] (MES, diether versus dihydroxy compound) is given as “greater than 3 times”. Besides, the TD50 in data set [3] was found to be 280 mg/kg. Besides, the “protective index (in words)” value is “unexpectedly high protective index” in data set [4] (listed as N-Benzyl 2,3-dimethyoxypropionamide); “significantly greater than the P.I. values of phenytoin, phenobarbital and valproate” in data set [4] (listed as diether). For the same compound, in data set [4] (intraperitoneal), the “P.I. (protective index, TD50/ED50)” value is listed as 9.3. Further, the “P.I., times more effective than that of the dihydroxy compound” value in data set [4] (intraperitoneal, diether versus dihydroxy compound) is recorded as “greater than 3 times”.
`CCC1(c2ccccc2)C(=O)NC(=O)NC1=O` [phenobarbital]: in data set [1], the ED50 is 22 mg/kg.
For the compound `COC[C@@H](OC)C(=O)NCc1ccccc1` [R OCH3 CH2 OCH3, (R)-N-Benzyl-2,3-dimethoxypropionamide], the TD50 in data set [3] was determined as 300 mg/kg.
